Assay results reported in patent publication US4703047A, “1-Cyclopropyl-1,4-dihydro-4-oxo-7-(4-(2-oxo-1,3-dioxol-4-yl- methyl)-1-piperazinyl)-3-quinolinecarboxylic acid antibacterial agents” (Bayer Aktiengesellschaft, priority 1985, dated 1987).
≈ marks a conversion by molar mass, not a printed value.

What was measured:
Assay in all cases: MIC, agar dilution test/Isosensitest agar
Conditions in all cases: unit assumed
Streptococcus 27101 = assay type: cell-based
Text: (§1) |(agar dilution test/Isosensitest agar)

Pseudomonas Ellsworth = assay type: cell-based
Text: as §1

Serratia 16040 = assay type: cell-based
Text: as §1

Klebsiella 8085 = assay type: cell-based
Text: as §1

Providencia 12012 = assay type: cell-based
Text: as §1

Proteus vulgaris 1017 = assay type: cell-based
Text: as §1

Staphylococcus FK 422 = assay type: cell-based
Text: as §1

E. coli Neumann = assay type: cell-based, Escherichia coli
Text: as §1

For Cc1oc(=O)oc1CN1CCN(c2cc3c(cc2F)c(=O)c(C(=O)O)cn3C2CC2)CC1 [Example 1, 1-Cyclopropyl-6-fluoro-1,4-dihydro-7-[4-(5-methyl-2-oxo-1,3-dioxol-4-yl-methyl)-1-piperazinyl]-4-oxo-3-quinolinecarboxylic acid], the MIC (Streptococcus 27101) was 0.5 mg/L (≈ 1.13 µM), the MIC (Pseudomonas Ellsworth) was 0.06 mg/L (≈ 0.135 µM) and the MIC (Serratia 16040) was 8 mg/L (≈ 18 µM). The MIC (Klebsiella 8085) was ≤ 0.015 mg/L, the MIC (Providencia 12012) was 0.03 mg/L (≈ 0.0677 µM) and the MIC (Proteus vulgaris 1017) was ≤ 0.015 mg/L. For the same compound, the MIC (Staphylococcus FK 422) was 0.25 mg/L (≈ 0.564 µM) and the MIC (E. coli Neumann) was ≤ 0.015 mg/L.
